Reference: patent US20140378541A1, “Synthetic Epigallocatechin Gallate (EGCG) Analogs” (WAYNE STATE UNIVERSITY, priority 2011, published 2014)

Key:
MDA-MB-231 cells = assay: Combination with docetaxel or erlotinib, Western blot (PARP cleavage, p-EGFR), MDA-MB-231 cells; assay type: cell-based, human; conditions: 24 h; for sensitization to docetaxel (apoptotic cell death, PARP cleavage): 20 μM plus 10 nM docetaxel; for sensitization to erlotinib (p-EGFR reduction, PARP cleavage): 20 μM plus 2.5 μM erlotinib
Method: In FIG. 9A, human breast cancer MDA-MB-231 cells were treated with 20 μM of EGCG, Pro-EGCG and EGCG analogs (compounds 5, 7, 23, 30 and 31), or 10 mM of metformin for 3 hrs. Cell lysates were analyzed by Western blot using antibodies of anti-AMPK, p-AMPK, PARP, p-EGFR, EGFR or β-actin. In FIG. 9B, human breast cancer MDA-MB-231 cells were treated with 20 μM of EGCG analogs 23 and 30, 10 nM of docetaxel alone, or combined treatment with compounds 23 and 30 plus docetaxel for 24 hrs. Cell lysates were analyzed by Western blot using antibodies of anti-AMPK, p-AMPK, PARP, p-EGFR, EGFR or β-actin. In FIG. 9C, cells were incubated in medium (0.1% BSA without FBS) containing 20 μM of 23, 30, 2.5 μM of Erlotinib (Eb) alone or the combinations as indicated for 24 hrs. Cell lyses were analyzed by Western blot using antibodies of anti-AMPK, p-AMPK, PARP, p-EGFR, EGFR or β-actin.
The Western blot analysis was performed as follows: A whole cell extract was prepared from the treated cells as described previously (Landis-Piwowar et al., Cancer research, 2007, 67: 4303-4310; Chen et al., Cancer research, 2007, 67: 1636-1644; Chen et al., Biochemical pharmacology, 2005, 69: 1421-1432). The cell extracts (30 μg) were then separated by an SDS-PAGE gel and transferred to nitrocellulose membranes. The membrances were blotted by specific antibodies including anti-AMPK, p-AMPK, EGFR, p-EGFR (Cell Signaling Tech. Danvers, Mass.), PARP (Enzo Life Sciences, Plymouth Meeting, Pa.), actin (Santa Cruz Biotechnology, Santa Cruz, Calif.). The membranes were visualized by enhanced chemiluminescence, as described previously (Landis-Piwowar et al., Cancer research, 2007, 67: 4303-4310; Chen et al., Cancer research, 2007, 67: 1636-1644; Chen et al., Biochemical pharmacology, 2005, 69: 1421-1432).
In FIG. 9A, human breast cancer MDA-MB-231 cells were treated with 20 μM of EGCG, Pro-EGCG and other EGCG analogs (compounds 5, 7, 23, 30 and 31), or 10 mM of metformin for 3 hrs. Cell lysates were analyzed by Western blot using antibodies of anti-AMPK, p-AMPK, PARP, p-EGFR, EGFR or β-actin. In FIG. 9B, human breast cancer MDA-MB-231 cells were treated with 20 μM of EGCG analogs 23 and 30, 10 nM of docetaxel alone, or combined treatment with compounds 23 and 30 plus docetaxel for 24 hrs.

[1] = tested on: human multiple myeloma ARP cells; assay: MTT assay in multiple myeloma ARP cells, alone or with Velcade; assay type: cell-based; conditions: 20 μM plus varying doses of Velcade, 48 h
Method: The cells were treated with Velcade™ alone or with 20 μM of compounds 5, 7 and 23 or in combination with varying doses of Velcade™ for 48 hrs, followed by a MTT assay.
Human multiple myeloma cells (Arp and Opm1) cells, kindly provided by Dr. Ramesh Batchu (Wayne State University), were grown in RPMI-1640 medium supplemented with 10% FBS, 100 units/ml of penicillin, and 100 μg/ml of streptomycin. Cells were maintained at 37° C. in 5% CO2 (Mujtaba T, et al., Int J Mol Med. (2012) 29(1):102-6).
Cells were grown in a 96-well plate. Triplicate wells of cells were treated with indicated concentrations of EGCG or EGCG analogs for 24 h. After aspiration of medium, MTT (1 mg/ml) was then added to the cell cultures, followed by incubation for 3 h at 37° C. After cells were crystallized, MTT was removed and DMSO was added to dissolve the metabolized MTT product. The absorbance was then measured on a Wallac Victor3 1420 Multi-label counter at 540 nm.

[2] = molecular target: T1, purified rabbit 20S proteasome (Oryctolagus cuniculus, UniProt G1T4Q9); assay: Inhibition of chymotrypsin-like activity of purified 20S proteasome; assay type: biochemical; conditions: purified 20S proteasome, concentration not stated
T1 sequence (G1T4Q9 60-263): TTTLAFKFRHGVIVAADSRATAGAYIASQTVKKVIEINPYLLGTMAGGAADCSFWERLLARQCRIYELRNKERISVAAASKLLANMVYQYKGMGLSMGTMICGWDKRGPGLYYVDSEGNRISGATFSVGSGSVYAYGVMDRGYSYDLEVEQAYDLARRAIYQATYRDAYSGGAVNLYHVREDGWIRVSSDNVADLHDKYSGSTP
Method: Purified 20S proteasome was incubated with compound 5, 7, 16, or 21 (A) or MDA-MB-231 cell extract (5.7 μg) was incubated with compound 6, 8, 17, or 22 (B) at indicated concentrations for 2 hours, followed by measuring the proteasomal chymotrypsin-like activity. EGCG was used as a comparative standard.
Purified rabbit 20S proteasome and fluorogenic substrate Suc-LLVY-AMC for the proteasomal chymotrypsin like (CT-like) activity were obtained from Calbiochem Inc. (San Diego, Calif.). Fetal bovine serum (FBS) was from Tissue Culture Biologicals (Tulare, Calif.). Penicillin and streptomycin were purchased from Invitrogen Co. (Carlsbad, Calif.). RPMI 1640 medium was purchased from Invitrogen Co. (Carlsbad, Calif.). MTT (3-4,5-dimethylthiazol-2-yl-2.5-diphenyl-tetrazolium bromide) was purchased from Sigma-Aldrich.
A purified rabbit 20S proteasome (35 ng) was incubated with 20 μM of substrate Suc-LLVY-AMC in 100 μl assay buffer (20 mM Tris-HCl, pH 7.5), in the presence of EGCG or EGCG analogs at different concentrations or the solvent for 2 h at 37° C., followed by measurement of hydrolysis of the fluorogenic substrates using a Wallac Victor3™ multi-label counter with 355-nm excitation and 460-nm emission wavelengths.

SMILES: Nc1ccc(C(=O)O[C@H]2Cc3ccccc3C[C@H]2OC(=O)c2ccc(N)cc2)cc1 [Compound 30]
- sensitization to docetaxel (apoptotic cell death, PARP cleavage) (MDA-MB-231 cells): sensitize these TNBC cells to Docetaxel
- sensitization to erlotinib (p-EGFR reduction, PARP cleavage) (MDA-MB-231 cells): sensitize these TNBC cells to the EGFR inhibitor Erlotinib

SMILES: O=C(O[C@H]1Cc2ccccc2C[C@H]1OC(=O)c1cc(O)c(Br)c(O)c1)c1cc(O)c(Br)c(O)c1 [Compound 23]
- effect on cell proliferation when combined with Velcade [1]: synergistic inhibitory effect
- sensitization to docetaxel (apoptotic cell death, PARP cleavage) (MDA-MB-231 cells): sensitize these TNBC cells to Docetaxel
- sensitization to erlotinib (p-EGFR reduction, PARP cleavage) (MDA-MB-231 cells): sensitize these TNBC cells to the EGFR inhibitor Erlotinib

SMILES: O=C(O[C@@H]1Cc2c(O)cc(O)cc2O[C@@H]1c1cc(O)c(O)c(O)c1)c1cc(O)c(O)c(O)c1 [Compound 1, (−)-Epigallocatechin gallate, reference compound]
- proteasomal inhibition (in words) [2]: potently inhibited
